Structures can show the parent of a compound that is named as a salt.
Key:
[1] = target: T1, epithelial sodium channels (ENaC) (Canis lupus familiaris, UniProt A0A8I3MKE6+A0A8I3Q679+Q95165); assay: In vitro sodium channel blocking activity (short circuit current, Ussing chambers), dog airway cells; format: cell-based; settings: freshly excised cell from dog airways
T1 sequence (A0A8I3Q679 1-649): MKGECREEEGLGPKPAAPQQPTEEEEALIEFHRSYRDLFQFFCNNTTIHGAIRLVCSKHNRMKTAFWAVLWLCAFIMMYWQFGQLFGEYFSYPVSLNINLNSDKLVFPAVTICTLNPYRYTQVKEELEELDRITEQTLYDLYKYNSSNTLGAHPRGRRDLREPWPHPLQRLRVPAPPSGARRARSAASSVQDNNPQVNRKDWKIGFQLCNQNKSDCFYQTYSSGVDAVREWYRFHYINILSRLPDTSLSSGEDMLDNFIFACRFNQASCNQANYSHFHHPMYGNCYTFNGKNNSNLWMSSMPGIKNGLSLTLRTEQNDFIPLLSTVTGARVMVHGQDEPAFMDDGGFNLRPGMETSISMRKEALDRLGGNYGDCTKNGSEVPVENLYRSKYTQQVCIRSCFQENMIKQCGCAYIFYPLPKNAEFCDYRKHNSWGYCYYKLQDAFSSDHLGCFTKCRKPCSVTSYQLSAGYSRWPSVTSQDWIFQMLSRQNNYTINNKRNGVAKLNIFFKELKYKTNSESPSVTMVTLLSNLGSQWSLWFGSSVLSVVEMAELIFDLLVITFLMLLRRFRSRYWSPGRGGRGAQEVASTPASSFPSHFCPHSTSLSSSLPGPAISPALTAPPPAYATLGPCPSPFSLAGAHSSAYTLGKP
T1 sequence (Q95165 1-641): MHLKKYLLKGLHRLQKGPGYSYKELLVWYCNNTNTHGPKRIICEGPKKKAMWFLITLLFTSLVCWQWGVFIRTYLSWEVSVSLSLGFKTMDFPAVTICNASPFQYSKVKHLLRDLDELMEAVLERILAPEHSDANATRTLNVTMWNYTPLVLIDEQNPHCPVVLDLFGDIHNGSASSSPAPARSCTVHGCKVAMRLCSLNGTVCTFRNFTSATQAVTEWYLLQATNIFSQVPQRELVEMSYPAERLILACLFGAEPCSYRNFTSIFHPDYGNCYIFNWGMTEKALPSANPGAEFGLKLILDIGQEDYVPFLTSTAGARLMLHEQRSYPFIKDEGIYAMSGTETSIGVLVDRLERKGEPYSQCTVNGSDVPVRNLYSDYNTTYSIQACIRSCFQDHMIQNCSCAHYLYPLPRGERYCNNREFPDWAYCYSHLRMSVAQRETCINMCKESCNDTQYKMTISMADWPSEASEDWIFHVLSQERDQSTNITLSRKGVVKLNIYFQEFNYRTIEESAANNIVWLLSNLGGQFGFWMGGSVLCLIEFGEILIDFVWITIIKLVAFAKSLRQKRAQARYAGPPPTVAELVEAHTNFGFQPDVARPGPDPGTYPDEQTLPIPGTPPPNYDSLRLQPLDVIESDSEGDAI
T1 sequence (A0A8I3MKE6 1-646): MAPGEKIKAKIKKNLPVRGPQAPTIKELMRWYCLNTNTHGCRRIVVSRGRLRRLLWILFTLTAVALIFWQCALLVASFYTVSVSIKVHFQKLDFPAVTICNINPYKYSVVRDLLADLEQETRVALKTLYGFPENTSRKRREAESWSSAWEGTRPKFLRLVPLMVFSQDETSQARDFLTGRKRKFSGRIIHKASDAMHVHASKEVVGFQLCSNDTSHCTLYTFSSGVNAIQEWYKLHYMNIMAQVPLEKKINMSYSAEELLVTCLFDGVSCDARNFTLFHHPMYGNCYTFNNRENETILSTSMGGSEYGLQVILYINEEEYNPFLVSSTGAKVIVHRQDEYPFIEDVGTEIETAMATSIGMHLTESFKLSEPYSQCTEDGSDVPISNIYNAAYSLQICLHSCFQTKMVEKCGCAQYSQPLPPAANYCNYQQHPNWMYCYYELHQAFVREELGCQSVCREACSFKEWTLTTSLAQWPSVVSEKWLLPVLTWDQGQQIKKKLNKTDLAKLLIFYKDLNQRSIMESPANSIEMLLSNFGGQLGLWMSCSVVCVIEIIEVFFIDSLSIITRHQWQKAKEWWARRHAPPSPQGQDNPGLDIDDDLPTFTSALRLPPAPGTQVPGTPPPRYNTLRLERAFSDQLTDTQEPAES
Protocol: One assay used to assess mechanism of action and/or potency of the compounds of the present invention involves the determination of lumenal drug inhibition of airway epithelial sodium currents measured under short circuit current (ISC) using airway epithelial monolayers mounted in Ussing chambers. Cells obtained from freshly excised human, dog, sheep or rodent airways are seeded onto porous 0.4 micron Snapwell™ Inserts (CoStar), cultured at air-liquid interface (ALI) conditions in hormonally defined media, and assayed for sodium transport activity (ISC) while bathed in Krebs Bicarbonate Ringer (KBR) in Using chambers. All test drug additions are to the lumenal bath with half-log dose addition protocols (from 1×10^−11 M to 3×10^−5 M), and the cumulative change in ISC (inhibition) recorded. All drugs are prepared in dimethyl sulfoxide as stock solutions at a concentration of 1×10^−2 M and stored at −20° C. […] After the maximal concentration (5×10^−5 M) is administered, the lumenal bath is exchanged three times with fresh drug-free KBR solution, and the resultant ISC measured after each wash for approximately 5 minutes in duration. […] All data from the voltage clamps are collected via a computer interface and analyzed off-line.
(§1) Dose-effect relationships for all compounds are considered and analyzed by the Prism 3.0 program.

[2] = target: T2, epithelial sodium channels (ENaC) (Homo sapiens, UniProt P37088+P51168+P51170); assay: In vitro sodium channel blocking activity (short circuit current, Ussing chambers), human airway cells; format: cell-based; settings: freshly excised cell from human airways
T2 construct: endogenous in cells; host or cells: primary human airway epithelial cells cultured at air-liquid interface
T2 sequence (P37088 1-669): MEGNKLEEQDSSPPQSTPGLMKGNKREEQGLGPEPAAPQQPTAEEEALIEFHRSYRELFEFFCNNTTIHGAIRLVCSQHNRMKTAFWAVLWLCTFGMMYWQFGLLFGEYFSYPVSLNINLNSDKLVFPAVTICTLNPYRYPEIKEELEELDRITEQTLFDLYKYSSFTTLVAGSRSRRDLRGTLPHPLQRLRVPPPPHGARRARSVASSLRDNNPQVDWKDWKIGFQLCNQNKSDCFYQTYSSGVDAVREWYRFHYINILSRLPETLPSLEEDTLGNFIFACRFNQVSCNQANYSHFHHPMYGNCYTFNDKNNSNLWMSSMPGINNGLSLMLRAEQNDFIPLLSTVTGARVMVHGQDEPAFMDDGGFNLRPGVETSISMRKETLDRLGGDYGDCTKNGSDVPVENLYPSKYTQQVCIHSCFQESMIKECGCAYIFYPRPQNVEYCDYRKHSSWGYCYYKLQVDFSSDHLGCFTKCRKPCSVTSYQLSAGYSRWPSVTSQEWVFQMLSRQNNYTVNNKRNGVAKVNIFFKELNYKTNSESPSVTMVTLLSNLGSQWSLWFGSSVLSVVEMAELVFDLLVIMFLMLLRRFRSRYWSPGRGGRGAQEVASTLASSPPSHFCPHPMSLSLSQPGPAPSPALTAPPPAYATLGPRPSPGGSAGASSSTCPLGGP
T2 sequence (P51168 1-640): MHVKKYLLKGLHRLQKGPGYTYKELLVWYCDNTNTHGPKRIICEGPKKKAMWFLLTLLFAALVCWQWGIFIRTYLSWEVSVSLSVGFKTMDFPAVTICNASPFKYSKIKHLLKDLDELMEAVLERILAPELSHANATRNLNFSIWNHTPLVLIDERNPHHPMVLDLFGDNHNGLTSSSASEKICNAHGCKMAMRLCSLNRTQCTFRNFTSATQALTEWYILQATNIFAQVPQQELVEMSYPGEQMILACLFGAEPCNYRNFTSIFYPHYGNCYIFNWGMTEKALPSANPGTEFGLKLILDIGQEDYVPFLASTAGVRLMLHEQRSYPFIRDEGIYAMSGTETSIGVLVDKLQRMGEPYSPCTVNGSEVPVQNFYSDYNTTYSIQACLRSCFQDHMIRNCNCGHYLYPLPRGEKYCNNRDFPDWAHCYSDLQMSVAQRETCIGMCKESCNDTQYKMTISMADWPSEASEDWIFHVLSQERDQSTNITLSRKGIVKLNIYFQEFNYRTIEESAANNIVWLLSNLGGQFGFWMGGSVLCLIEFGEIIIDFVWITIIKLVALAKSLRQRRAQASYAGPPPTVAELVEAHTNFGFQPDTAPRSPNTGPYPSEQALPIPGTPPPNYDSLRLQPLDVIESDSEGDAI
T2 sequence (P51170 1-649): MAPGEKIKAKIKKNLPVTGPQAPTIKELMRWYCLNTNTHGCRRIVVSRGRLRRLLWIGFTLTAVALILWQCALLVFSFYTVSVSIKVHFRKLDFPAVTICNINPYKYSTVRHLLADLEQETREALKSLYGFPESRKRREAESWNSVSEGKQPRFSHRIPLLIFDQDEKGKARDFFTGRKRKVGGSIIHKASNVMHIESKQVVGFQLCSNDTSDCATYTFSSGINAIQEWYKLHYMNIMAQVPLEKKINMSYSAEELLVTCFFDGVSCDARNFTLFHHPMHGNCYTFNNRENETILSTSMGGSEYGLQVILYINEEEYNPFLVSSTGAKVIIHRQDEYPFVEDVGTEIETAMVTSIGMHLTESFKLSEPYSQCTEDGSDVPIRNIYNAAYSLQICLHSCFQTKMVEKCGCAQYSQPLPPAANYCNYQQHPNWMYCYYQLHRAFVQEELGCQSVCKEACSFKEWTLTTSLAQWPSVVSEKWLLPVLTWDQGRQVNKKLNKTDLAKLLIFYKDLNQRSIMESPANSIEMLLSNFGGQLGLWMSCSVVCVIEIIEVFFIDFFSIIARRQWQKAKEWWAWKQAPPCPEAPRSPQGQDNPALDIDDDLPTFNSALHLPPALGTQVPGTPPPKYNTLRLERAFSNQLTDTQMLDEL
Protocol: In Vitro Measure of Sodium Channel Blocking Activity and Reversibility
One assay used to assess mechanism of action and/or potency of the compounds of the present invention involves the determination of lumenal drug inhibition of airway epithelial sodium currents measured under short circuit current (ISC) using airway epithelial monolayers mounted in Ussing chambers. Cells obtained from freshly excised human, dog, sheep or rodent airways are seeded onto porous 0.4 micron Snapwell™ Inserts (CoStar), cultured at air-liquid interface (ALI) conditions in hormonally defined media, and assayed for sodium transport activity (ISC) while bathed in Krebs Bicarbonate Ringer (KBR) in Using chambers. All test drug additions are to the lumenal bath with half-log dose addition protocols (from 1×10^−11 M to 3×10^−5 M), and the cumulative change in ISC (inhibition) recorded. All drugs are prepared in dimethyl sulfoxide as stock solutions at a concentration of 1×10^−2 M and stored at −20° C. […] After the maximal concentration ([…]) is administered, the lumenal bath is exchanged three times with fresh drug-free KBR solution, and the resultant ISC measured after each wash for approximately 5 minutes in duration. Reversibility is defined as the percent return to the baseline value for sodium current after the third wash. All data from the voltage clamps are collected via a computer interface and analyzed off-line.
as §1

| Compound | IC50 [1] [nM] | Potency of Sodium Channel Blockade Relative to Amiloride [2] | melting point [°C] |
| --- | --- | --- | --- |
| CC1OC[C@@H](O)[C@H]([C@H](O)[C@@H](O)CNCCCOc2ccc3cc(CCCCN)ccc3c2)O1 (some centres unmarked) [Compound 105] | 23.5 |  |  |
| C[C@H](O)C(=O)O.N=C(NCCCCc1ccc(OCC(O)CO)c2ccccc12)NC(=O)c1cc(Cl)c(N)cc1N [Compound 26, 2,4-Diamino-5-chloro-N—(N-{4-[4-(2,3-dihydroxypropoxy)naphthalen-1-yl]butyl}carbamimidoyl)benzamide L-(+)-Lactic Acid Salt] |  | 30 | 115 to 118 |
| N=C(NCCCCc1ccc2cc(OCC(O)CO)ccc2c1)NC(=O)c1nc(Cl)c(N)nc1N (centres unmarked) [Compound 34, 3,5-Diamino-6-chloro-N—(N-{4-[6-(2,3-dihydropropoxy)naphthalen-2-yl]butyl}carbamimidoyl)pyrazine-2-carboxamide Methanesulfonic Acid Salt] |  | 63 |  |
| CS(=O)(=O)O.N=C(NCCCCc1ccc(OCCCN)c2ccccc12)NC(=O)c1nc(Cl)c(N)nc1N [Compound 72, 3,5-Diamino-N—(N-{4-[4-(3-aminopropoxy)naphthalen-1-yl]butyl}carbamimidoyl)-6-chloropyrazine-2-carboxamide Methanesulfonic Acid Salt] |  | 164 |  |
